Like-named read-outs stand apart in the source and are kept apart here.
Biological target: α-glucosidase enzyme (type 1 from Baker's yeast) (Saccharomyces cerevisiae, UniProt P53341)
Experiment: α-Glucosidase inhibitory assay (p-nitrophenyl-α-D-glucopyranoside substrate, absorbance at 405 nm)
Format: biochemical
Conditions: for inhibition at 1000 µg/mL: Concentration: 1 mg/mL, Means ± SD, n = 3; for IC50: α-glucosidase inhibition
Experimental: The method of α-glucosidase inhibitory assay was adopted from Ahmad et al. with minor modification. The plant samples (extract/fraction/compound) were prepared in 5% DMSO at a concentration of 1000 μg/mL. A series of dilutions for each sample were prepared to give concentrations of 1000, 500, 250, 125, 62.5 and 31.25 μg/mL. Then, about 10 μL of sample, 20 μL of α-glucosidase enzyme solution (type 1 from Baker’s yeast), phosphate buffer saline (40 μL at pH 6.5) and deionized water (20 μL) were mixed in a 96-well plate. The mixture was incubated at 37 °C. After 10 min, 10 μL of 20 mM p-nitrophenyl-α-D-glucopyranoside solution was added into the mixture and absorbance at time 0 min was measured by the spectrophotometer (λ = 405 nm). Then, the reaction mixture was incubated at 37 °C for 30 min and the absorbance was measured. […] Experiments were performed in triplicates with three independent experiments. The percentage inhibitory activity was calculated using the following equation: (1) Inhibition (%)=(A30 min–A0 min) control – (A30 min – A0 min) sample × 100/(A30 min–A0 min) control where A is the absorbance of mixture measured at 405 nm.

Chain of α-glucosidase enzyme (type 1 from Baker's yeast) (P53341 whole entry): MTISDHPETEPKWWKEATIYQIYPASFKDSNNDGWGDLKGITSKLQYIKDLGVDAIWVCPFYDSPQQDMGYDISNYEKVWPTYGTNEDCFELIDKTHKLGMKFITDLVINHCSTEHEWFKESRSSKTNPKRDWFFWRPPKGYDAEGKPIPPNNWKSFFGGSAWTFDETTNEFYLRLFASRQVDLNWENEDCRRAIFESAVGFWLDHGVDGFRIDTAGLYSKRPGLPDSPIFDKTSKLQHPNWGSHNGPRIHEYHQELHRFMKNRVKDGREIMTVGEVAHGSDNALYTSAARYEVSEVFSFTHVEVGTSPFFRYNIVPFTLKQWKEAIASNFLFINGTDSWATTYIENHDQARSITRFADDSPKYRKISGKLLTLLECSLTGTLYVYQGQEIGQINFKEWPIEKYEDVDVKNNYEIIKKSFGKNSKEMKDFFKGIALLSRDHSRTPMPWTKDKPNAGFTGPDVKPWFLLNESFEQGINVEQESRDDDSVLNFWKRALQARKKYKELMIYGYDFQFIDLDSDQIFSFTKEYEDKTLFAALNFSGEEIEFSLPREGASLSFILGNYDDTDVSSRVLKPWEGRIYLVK

## O=C(O)c1ccc(O)cc1O [2,4-DHBA, 2,4-Dihydroxybenzoic acid]
  inhibition at 1000 µg/mL: 78.8 ± 0.4%
Dilution series 1000-31.25 μg/mL, read-out: IC50 (μg/mL) (converted)
  IC50: 3.56 mM
Same IC50 in molar units, read-out: IC50
  IC50: 3.56 mM

## COC(=O)C1=CO[C@@H](O[C@@H]2O[C@H](CO)[C@@H](O)[C@H](O)[C@H]2O)[C@@H]2[C@@H](C)[C@@H](O)C[C@H]12 [Loganin]
  inhibition at 1000 µg/mL: 44.9 ± 0.7%

## C[C@H]1O[C@H](O[C@H]2[C@H](O)[C@@H](O)[C@@H](O[C@H]3[C@H](O)[C@@H](O)C(O)O[C@@H]3CO)O[C@@H]2CO)[C@H](O)[C@@H](O)[C@@H]1N[C@H]1C=C(CO)[C@@H](O)[C@H](O)[C@H]1O (stereo partly shown) [Acarbose, reference compound]
  inhibition at 1000 µg/mL: 90.9 ± 2.7%

## COc1cc2ccc(=O)oc2cc1O [Scopoletin]
  inhibition at 1000 µg/mL: 34.5 ± 0.4%

## O=c1c(O)c(-c2ccc(O)c(O)c2)oc2cc(O)cc(O)c12 [Quercetin]
  inhibition at 1000 µg/mL: 84.5 ± 0.6%

Reference: PMC6274048, “Chemical Constituents of Malaysian U. cordata var. ferruginea and Their in Vitro α-Glucosidase Inhibitory Activities” (Molecules, 2016)
